Laboratory results taken from US9409952B2, “Peptide-compound cyclization method” (Chugai Seiyaku Kabushiki Kaisha, priority 2011, dated 2016).
Where two headings read alike, the source gives them in different places. Starred links: 1 amine or outer side, 2 acyl side, 3 side chain; linkers in the order of their positions; H or OH if unused. Non-standard residues stand in square brackets, D forms with d. Residues, ends and D or L forms follow the SMILES beside them. *: point of attachment. Phe(4-CF3) = N[C@@H](Cc1ccc(C(F)(F)F)cc1)C(=O)O; NMePhe(3-Cl) = CN[C@@H](Cc1cccc(Cl)c1)C(=O)O; NMeF = CN[C@@H](Cc1ccccc1)C(=O)O; NMeGABA = CN(CCCC(=O)[*:2])[*:1]; NMeI = CC[C@H](C)[C@H](NC)C(=O)O; NMeβAla = CN(CCC(=O)[*:2])[*:1]; Aoc(2) = CCCCCC[C@H](N)C(=O)O; NMeL = CN[C@@H](CC(C)C)C(=O)O; NMeV = CN[C@H](C(=O)O)C(C)C; NMeA = CN[C@@H](C)C(=O)O; dNMeA = CN[C@H](C)C(=O)O; β3hA = C[C@H](N)CC(=O)O; Sar = CNCC(=O)O; tBu = CC(C)(C)*

Assays:
[1] = PAMPA (parallel artificial membrane permeability assay); type: in vitro ADME; details: PAMPA
Outline: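 Artificial membrane was 10% (w/v) egg lecithin plus 0.5% (w/v) cholesterol in dodecane on a PVDF filter. A 10 mM DMSO stock was added at 0.5% (v/v) to donor buffer (50 mM MOPSO, pH 6.5, 5.0% glycocholic acid). After 18 h at 37 °C, LC/MS or LC/UV gave donor and acceptor levels for Pe.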

[2] = Metabolic stability in human hepatic microsome; type: in vitro ADME; details: microsomes
[3] = membrane permeation rate (Pe), 50 mM MOPSO buffer pH 6.5 with 5.0% glycocholic acid, 37° C., 18 hours, read-out: iPAMPA Pe
[4] = pH 7.4, human hepatic microsome, NADPH(+), read-out: CL NADPH(+)

Papp at 18 hours, 50 µM ([1]; pH 6.5) | microsomal CLint at 1 uM ([2]; human, pH 7.4, CL NADPH(+)) | SMILES | Papp at 18 hours, 50 µM [1, 3] | microsomal CLint at 1 uM [2, 4]
27 ×10⁻⁶ cm/s | 144 µL/min/mg | CC[C@H](C)[C@H]1C(=O)N(C)[C@@H](C)C(=O)N(C)[C@@H](CC(C)C)C(=O)N[C@@H](COC(C)(C)C)C(=O)N(C)[C@@H](CC(C)C)C(=O)N[C@@H](C)CC(=O)N(C)[C@@H](C)C(=O)N(C)[C@@H](Cc2ccccc2)C(=O)N[C@@H](C)C(=O)N(C)[C@@H](CC(C)C)C(=O)N[C@@H]([C@@H](C)O)C(=O)N[C@@H](Cc2ccccc2)C(=O)N1C [DP-759] (cyclo(A[NMeL]TF[NMeI][NMeA][NMeL]S(tBu)[NMeL][β3hA][NMeA][NMeF])) | – | –
28 ×10⁻⁶ cm/s | 194 µL/min/mg | CC[C@H](C)[C@H]1C(=O)N[C@@H](C)C(=O)N(C)[C@@H](CC(C)C)C(=O)N[C@@H]([C@@H](C)O)C(=O)N[C@@H](Cc2ccccc2)C(=O)N(C)[C@@H](Cc2ccccc2)C(=O)N(C)[C@@H](CC(C)C)C(=O)N[C@@H](COC(C)(C)C)C(=O)N(C)[C@@H](CC(C)C)C(=O)N(C)[C@@H](C)C(=O)N[C@@H](C)CC(=O)N[C@H](C(C)C)C(=O)N1C [DP-760] (cyclo(A[NMeL]TF[NMeF][NMeL]S(tBu)[NMeL][NMeA][β3hA][dV][NMeI])) | – | –
9.2 ×10⁻⁶ cm/s | 118 µL/min/mg | CC[C@H](C)[C@H]1C(=O)N(C)[C@@H](C)C(=O)N(C)[C@@H](CC(C)C)C(=O)N[C@@H](COC(C)(C)C)C(=O)N(C)[C@@H](CC(C)C)C(=O)N[C@@H](C)CC(=O)N(C)[C@@H](C)C(=O)N(C)[C@@H](Cc2ccccc2)C(=O)N[C@@H](CC(C)C)C(=O)N(C)[C@@H](CC(C)C)C(=O)N[C@@H]([C@@H](C)O)C(=O)N[C@@H](Cc2ccccc2)C(=O)N1C [DP-761] (cyclo(F[NMeI][NMeA][NMeL]S(tBu)[NMeL][β3hA][NMeA][NMeF]L[NMeL]T)) | – | –
13 ×10⁻⁶ cm/s | 81 µL/min/mg | CC[C@H](C)[C@H]1C(=O)NCC(=O)N(C)[C@@H](Cc2cccc(Cl)c2)C(=O)N[C@@H]([C@@H](C)O)C(=O)N(C)[C@@H](CC(C)C)C(=O)N[C@@H](CC(C)C)C(=O)N[C@@H](C)CC(=O)N(C)[C@H](C)C(=O)N(C)[C@@H](CC(C)C)C(=O)N[C@@H](Cc2ccccc2)C(=O)N(C)[C@@H](CC(C)C)C(=O)N[C@@H](C(C)C)C(=O)N1C [DP-762] (cyclo(F[NMeL]V[NMeI]G[NMePhe(3-Cl)]T[NMeL]L[β3hA][dNMeA][NMeL])) | – | –
2.5 ×10⁻⁶ cm/s | 15 µL/min/mg | CC(C)C[C@H]1C(=O)N(C)[C@@H](C)C(=O)N[C@@H](C)C(=O)N[C@@H](C)CC(=O)N(C)CCC(=O)N(C)[C@@H](Cc2ccccc2)C(=O)N(C)[C@@H](C)C(=O)N[C@@H]([C@@H](C)O)C(=O)N(C)[C@@H](C)C(=O)N[C@@H](Cc2ccccc2)C(=O)N(C)[C@@H](C(C)C)C(=O)N1C [DP-763] (cyclo(A[β3hA][NMeβAla][NMeF][NMeA]T[NMeA]F[NMeV][NMeL][NMeA])) | – | –
– | – | CC(C)C[C@@H]1NC(=O)[C@H](CC(C)C)N(C)C(=O)[C@H](C)NC(=O)[C@H](C(C)C)N(C)C(=O)[C@H](Cc2ccccc2)NC(=O)CN(C)C(=O)[C@H]([C@@H](C)O)NC(=O)[C@H](C)N(C)C(=O)[C@H](CC(C)C)N(C)C(=O)[C@@H](C)NC(=O)C[C@H](C)NC1=O [DP-764] (cyclo(A[NMeL]L[β3hA][dA][NMeL][NMeA]T[Sar]F[NMeV])) | 5 ×10⁻⁶ cm/s | 27 µL/min/mg
3 ×10⁻⁶ cm/s | 13 µL/min/mg | CC(C)C[C@H]1C(=O)N[C@@H](C)C(=O)N(C)[C@@H](C)C(=O)N[C@@H](C)CC(=O)N(C)[C@@H](C)C(=O)N[C@@H]([C@@H](C)O)C(=O)N(C)CC(=O)N(C)[C@@H](Cc2ccccc2)C(=O)N(C)[C@@H](Cc2ccccc2)C(=O)N(C)[C@@H](C)C(=O)N2CCC[C@H]2C(=O)N1C [DP-765] (cyclo(A[NMeA][β3hA][NMeA]T[Sar][NMeF][NMeF][NMeA]P[NMeL])) | – | –
13 ×10⁻⁶ cm/s | 54 µL/min/mg | CC(C)C[C@H]1C(=O)N(C)[C@@H](C)C(=O)N(C)[C@@H](C)C(=O)N(C)[C@@H](Cc2ccccc2)C(=O)N[C@@H]([C@@H](C)O)C(=O)N(C)[C@@H](Cc2ccccc2)C(=O)N(C)[C@@H](CC(C)C)C(=O)N2CCC[C@H]2C(=O)N[C@@H](C)CC(=O)N[C@@H](C)C(=O)NCC(=O)N1C [DP-766] (cyclo(AG[NMeL][NMeA][NMeA][NMeF]T[NMeF][NMeL]P[β3hA])) | – | –
30 ×10⁻⁶ cm/s | 34 µL/min/mg | CC[C@H](C)[C@H]1C(=O)N(C)[C@@H](C)C(=O)N(C)[C@@H](Cc2ccccc2)C(=O)N[C@@H]([C@@H](C)O)C(=O)N(C)[C@@H](Cc2ccccc2)C(=O)N(C)[C@@H](CC(C)C)C(=O)N2CCC[C@H]2C(=O)N[C@@H](C)CC(=O)N[C@@H](C)C(=O)NCC(=O)N(C)[C@@H](CC(C)C)C(=O)N1C [DP-767] (cyclo(AG[NMeL][NMeI][NMeA][NMeF]T[NMeF][NMeL]P[β3hA])) | – | –
25 ×10⁻⁶ cm/s | 34 µL/min/mg | CC(C)C[C@H]1C(=O)N2CCC[C@H]2C(=O)N(C)[C@@H](CC(C)C)C(=O)N[C@@H](C)C(=O)N(C)[C@@H](C(C)C)C(=O)N[C@@H](C)CC(=O)N(C)[C@@H](C)C(=O)N[C@@H]([C@@H](C)O)C(=O)N(C)CC(=O)N(C)[C@@H](Cc2ccccc2)C(=O)N(C)[C@@H](Cc2ccccc2)C(=O)N1C [DP-768] (cyclo(A[NMeV][β3hA][NMeA]T[Sar][NMeF][NMeF][NMeL]P[NMeL])) | – | –
53 ×10⁻⁶ cm/s | 78 µL/min/mg | CC[C@H](C)[C@@H]1NC(=O)[C@H](C)N(C)C(=O)[C@H]([C@@H](C)O)NC(=O)[C@H](C(C)C)N(C)C(=O)[C@H](CC(C)C)NC(=O)[C@H](CC(C)C)N(C)C(=O)[C@@H](C)N(C)C(=O)C[C@H](C)NC(=O)[C@H](Cc2ccccc2)NC(=O)[C@H](C)NC(=O)[C@H](Cc2ccccc2)N(C)C1=O [DP-769] (cyclo(AF[β3hA][dNMeA][NMeL]L[NMeV]T[NMeA]I[NMeF])) | – | –
33 ×10⁻⁶ cm/s | 95 µL/min/mg | CC[C@H](C)[C@@H]1NC(=O)[C@H](CC(C)C)N(C)C(=O)[C@H](C(C)C)N(C)C(=O)[C@H](C)NC(=O)[C@H](C)N(C)C(=O)[C@H](Cc2ccccc2)NC(=O)[C@H]([C@@H](C)O)NC(=O)[C@H](CC(C)C)N(C)C(=O)[C@H](CC(C)C)N(C)C(=O)[C@H](C)N(C)C(=O)C[C@H](C)NC1=O [DP-770] (cyclo(A[NMeV][NMeL]I[β3hA][NMeA][NMeL][NMeL]TF[NMeA])) | – | –
47 ×10⁻⁶ cm/s | 228 µL/min/mg | CC[C@H](C)[C@H]1C(=O)N[C@@H](COC(C)(C)C)C(=O)N(C)[C@@H](Cc2ccccc2)C(=O)N(C)[C@@H](C(C)C)C(=O)N[C@@H](C)CC(=O)N(C)[C@@H](C)C(=O)N(C)[C@@H](Cc2ccccc2)C(=O)N[C@@H](CC(C)C)C(=O)N(C)[C@@H](CC(C)C)C(=O)N[C@@H]([C@@H](C)O)C(=O)N(C)CC(=O)N1C [DP-771] (cyclo(L[NMeL]T[Sar][NMeI]S(tBu)[NMeF][NMeV][β3hA][NMeA][NMeF])) | – | –
46 ×10⁻⁶ cm/s | 17 µL/min/mg | CC[C@H](C)[C@H]1C(=O)N(C)[C@@H](CC(C)C)C(=O)N[C@@H](C)C(=O)N(C)[C@@H](CC(C)C)C(=O)N(C)[C@@H](Cc2ccccc2)C(=O)N[C@@H]([C@@H](C)O)C(=O)N(C)[C@@H](Cc2ccccc2)C(=O)N(C)[C@@H](CC(C)C)C(=O)N(C)[C@@H](C)C(=O)N[C@@H](C)CC(=O)N[C@H](C(C)C)C(=O)N1C [DP-773] (cyclo(A[NMeL][NMeF]T[NMeF][NMeL][NMeA][β3hA][dV][NMeI][NMeL])) | – | –
26 ×10⁻⁶ cm/s | 71 µL/min/mg | CCCCCC[C@@H]1NC(=O)[C@H](CC(C)C)N(C)C(=O)[C@@H]2CCCN2C(=O)[C@H](C)N(C)C(=O)[C@H](Cc2ccccc2)N(C)C(=O)[C@H](Cc2ccccc2)N(C)C(=O)CN(C)C(=O)[C@H]([C@@H](C)O)NC(=O)[C@H](C)N(C)C(=O)C[C@H](C)NC(=O)[C@H](C(C)C)N(C)C1=O [DP-774] (cyclo([Aoc(2)][NMeV][β3hA][NMeA]T[Sar][NMeF][NMeF][NMeA]P[NMeL])) | – | –
37 ×10⁻⁶ cm/s | 119 µL/min/mg | CCCCCC[C@@H]1NC(=O)[C@H](Cc2ccccc2)N(C)C(=O)[C@H](C)N(C)C(=O)C[C@H](C)NC(=O)[C@H](C(C)C)N(C)C(=O)[C@H](Cc2ccccc2)N(C)C(=O)[C@H](COC(C)(C)C)NC(=O)[C@H](C)N(C)C(=O)CN(C)C(=O)[C@H]([C@@H](C)O)NC(=O)[C@H](CC(C)C)N(C)C1=O [DP-775] (cyclo([Aoc(2)][NMeL]T[Sar][NMeA]S(tBu)[NMeF][NMeV][β3hA][NMeA][NMeF])) | – | –
18 ×10⁻⁶ cm/s | 44 µL/min/mg | CC[C@H](C)[C@@H]1NC(=O)[C@H](CC(C)C)N(C)C(=O)[C@H](CC(C)C)N(C)C(=O)[C@H](C)NC(=O)[C@H](CC(C)C)N(C)C(=O)[C@H](Cc2ccc(C(F)(F)F)cc2)NC(=O)[C@H]([C@@H](C)O)NC(=O)[C@H](CC(C)C)N(C)C(=O)[C@H](CC(C)C)N(C)C(=O)[C@H](C)N(C)C(=O)C[C@H](C)NC1=O [DP-776] (cyclo(A[NMeL][NMeL]I[β3hA][NMeA][NMeL][NMeL]T[Phe(4-CF3)][NMeL])) | – | –
– | – | CC(C)C[C@H]1C(=O)N(C)[C@@H](CC(C)C)C(=O)N[C@@H]([C@@H](C)O)C(=O)N(C)[C@@H](Cc2ccccc2)C(=O)NCC(=O)N(C)[C@@H](C(C)C)C(=O)N[C@@H](Cc2ccccc2)C(=O)N[C@@H](C)CC(=O)N(C)CCC(=O)N[C@@H](COC(C)(C)C)C(=O)N1C [DP-777] (cyclo(F[β3hA][NMeβAla]S(tBu)[NMeL][NMeL]T[NMeF]G[NMeV])) | 39 ×10⁻⁶ cm/s | 428 µL/min/mg
26 ×10⁻⁶ cm/s | 139 µL/min/mg | CC[C@H](C)[C@@H]1NC(=O)[C@H](CC(C)C)N(C)C(=O)[C@H](C)NC(=O)CCCN(C)C(=O)C[C@H](C)NC(=O)[C@H]([C@@H](C)O)NC(=O)[C@H](Cc2ccccc2)NC(=O)[C@H](C(C)C)N(C)C(=O)[C@H](C)N(C)C(=O)[C@H](Cc2ccccc2)N(C)C1=O [DP-778] (cyclo(A[NMeL]I[NMeF][NMeA][NMeV]FT[β3hA][NMeGABA])) | – | –
